Source: patent US8901118B2, “Compounds and methods for kinase modulation, and indications therefor” (Plexxikon Inc., priority 2010, dated 2014)

What was measured:
Fms kinase = Fms kinase (Homo sapiens, UniProt P07333); assay: Fms kinase biochemical activity assay (AlphaScreen, biotin-(E4Y)10 phosphorylation); conditions: 100 μM ATP; read-out: Biochemical Inhibition IC50 Fms
How it was run: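 AlphaScreen read-out (PY20 acceptor, streptavidin donor beads, EDTA stop) of biotin-(E4Y)10 phosphorylation, with IC50 taken from the concentration–signal curve. Reaction: 30 nM substrate, 100 μM ATP, 1 ng/well Fms, Hepes pH 7.5 with Mg2+/Mn2+, 5% DMSO, 20 min at 30 °C.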

BCR-FMS BaF3 cells = target: T1, BCR-FMS BaF3 cells (Homo sapiens, UniProt P07333); assay: BaF3 BCR-FMS cell proliferation assay (ATPlite); assay type: cell-based; conditions: read-out: Inhibition of Cell Proliferation IC50, BCR/BaF3 Fms
T1 construct: fused on or other part: P11274 (Breakpoint cluster region protein)
T1 sequence (P07333 582-910): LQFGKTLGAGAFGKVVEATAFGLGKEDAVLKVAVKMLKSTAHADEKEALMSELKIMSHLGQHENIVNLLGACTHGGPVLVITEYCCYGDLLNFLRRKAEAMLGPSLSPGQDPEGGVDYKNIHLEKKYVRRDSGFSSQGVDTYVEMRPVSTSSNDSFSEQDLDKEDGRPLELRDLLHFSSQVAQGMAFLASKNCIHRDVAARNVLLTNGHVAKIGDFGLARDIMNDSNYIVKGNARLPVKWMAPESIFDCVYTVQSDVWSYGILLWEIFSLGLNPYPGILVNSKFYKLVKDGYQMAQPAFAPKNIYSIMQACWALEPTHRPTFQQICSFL
How it was run: (§1)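 Cells are plated overnight: BaF3 at 10,000/well in G418 medium without WEHI/IL-3, MV-4-11 at 25,000/well in IMDM with 10% FBS. An 8-point 1:3 compound titration (10 μM top) is then added, and plates are incubated 3 days at 37 °C before ATPlite readout and IC50 determination.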

BCR-NTRK3 BaF3 cells = target: T2, BCR-NTRK3 BaF3 cells (Homo sapiens, UniProt Q16288); assay: BaF3 BCR-NTRK3 cell proliferation assay (ATPlite); assay type: cell-based; conditions: read-out: Inhibition of Cell Proliferation IC50, BCR/BaF3 TrkC
T2 construct: fused on or other part: P11274 (Breakpoint cluster region protein)
T2 sequence (Q16288 whole entry, the tested form may be a part): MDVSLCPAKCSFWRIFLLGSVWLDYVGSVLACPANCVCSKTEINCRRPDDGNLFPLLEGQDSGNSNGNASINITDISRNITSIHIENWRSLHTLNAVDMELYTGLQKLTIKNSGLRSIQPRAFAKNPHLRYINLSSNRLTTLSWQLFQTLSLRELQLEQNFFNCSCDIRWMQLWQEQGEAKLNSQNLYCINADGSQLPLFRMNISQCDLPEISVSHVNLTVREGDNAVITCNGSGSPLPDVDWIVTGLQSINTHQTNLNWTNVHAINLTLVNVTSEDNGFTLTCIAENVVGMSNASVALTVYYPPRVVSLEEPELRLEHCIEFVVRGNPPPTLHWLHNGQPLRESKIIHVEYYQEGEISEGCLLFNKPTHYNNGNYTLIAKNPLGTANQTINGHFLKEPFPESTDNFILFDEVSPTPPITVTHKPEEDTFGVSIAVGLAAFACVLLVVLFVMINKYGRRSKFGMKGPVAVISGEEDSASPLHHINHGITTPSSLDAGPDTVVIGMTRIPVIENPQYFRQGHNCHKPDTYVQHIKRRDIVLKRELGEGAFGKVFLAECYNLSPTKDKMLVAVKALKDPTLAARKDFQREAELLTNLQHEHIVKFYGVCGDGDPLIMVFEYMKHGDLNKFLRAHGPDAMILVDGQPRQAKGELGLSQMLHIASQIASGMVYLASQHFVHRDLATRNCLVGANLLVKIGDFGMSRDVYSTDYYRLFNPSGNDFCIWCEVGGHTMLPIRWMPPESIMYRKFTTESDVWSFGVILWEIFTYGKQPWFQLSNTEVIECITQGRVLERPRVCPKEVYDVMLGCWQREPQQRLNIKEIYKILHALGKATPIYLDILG
How it was run: as §1

SKNSH cells = assay: SKNSH (human neuroblastoma) cell proliferation assay (ATPlite); assay type: cell-based; conditions: SK-N-SH, read-out: Inhibition of Cell Proliferation IC50, SKNSH
Protocol: Compounds are assessed in a variety of cell based assays. For example BaF3 cells engineered with any of BCR-FMS, BCR-KIT, BCR-FLT3, BCR-NTRK1, BCR-NTRK2, and BCR-NTRK3, are used in cell proliferation assays to assess inhibitory activity of Fms, Kit, Flt-3, TrkA, TrkB, and TrkC, respectively. An MV-4-11 (leukemia) cell proliferation assay is used to assess inhibitory activity in Flt-3, and SKNSH (human neuroblastoma) cell proliferation assay is used to assess efficacy of Fms/Trk inhibitors. Additional cells may be assayed similarly to assess the efficacy of Fms/Trk inhibitors, such as MiaPaCa (human pancreatic cancer) and Capan-1 (human pancreatic carcinoma) cells. Reagent and assay conditions are as follows: • BaF3 cells: • Maintained in RPMI containing 10% FBS, 1% PenStrep, 1% NEAA, and 1% L-Glutamine, supplemented with 1 mg/mL G418 and 5% WEHI-CM (or recombinant murine IL-3). • Confluent cells are split 1:50 to 1:100 every 3-4 days. • MV-4-11 cells: • Maintained in Iscove's Modified Dulbecco's Medium containing 10% FBS. • Confluent cells are split 1:4 every 3-4 days. • SKNSH cells: RPMI containing 10% FBS. On day 1, cells are counted, then centrifuged in a conical tube for 5 minutes at 1000 rpm. The supernatant is removed and cells are re-suspended as follows: • BaF3: resuspend in growth media +1 mg/mL G418 (without WEHFIL-3) to 2×10^5 cells/mL. • MV-4-11: resuspend in growth media to 5×10^5 cells/mL. • SKNSH: resuspend in growth media to 2×10^4 cells/mL. The cells are plated (50 μL, 150 μL for SKNSH cells) in each well of a 96-well dish (Corning 3610) and incubated at 37° C. in 5% CO2 overnight, cells plated to a final concentration of cells as follows: • BaF3: 10,000 cells per well. • MV-4-11: 25,000 cells per well. • SKNSH: 3,000 cells per well. On day 2, compound at a maximum concentration of 5 mM is serially diluted 1:3 for a total of 8 point titration with DMSO as a control. A 1 μL aliquot of each dilution point is added to 249 μL growth media and 50 μL is added to a well containing cells, providing 10 μM compound for the maximum concentration point. The cells are incubated for 3 days at 37° C. in 5% CO2. For SKNSH cells, a 0.75 μL aliquot of appropriate dilution in DMSO is added to 150 μL of cells. On day 5, ATPlite 1 step Luminescence Assay System (Perkin Elmer #6016739) is brought to room temperature along with the cell cultures. ATPlite is added to each well as follows: • BaF3: 25 μL per well. • MV-4-11: 40 μL per well. • SKNSH: 20 μL per well. The cells are incubated at room temperature for 10 minutes, then luminescence is read on Safire reader. The measured luminescence correlates directly with cell number, such that the reading as a function of compound concentration is used to determine the IC50 value.
It is understood that the results of these assays may vary as assay conditions are varied. Inhibition levels determined under the conditions described herein represent a relative activity for the compounds tested under the specific conditions employed. The cell based assays are likely to show variability due to the complexity of the system and the sensitivity thereof to any changes in the assay conditions. […] Results for compounds that are tested and show substantially no inhibition below the highest tested concentration are represented as “-” in the tables below. In some instances, the compounds were not tested in all of the assays, or assay results were not valid, as indicated by NA in the tables below.

Chain of Fms kinase (P07333 20-972): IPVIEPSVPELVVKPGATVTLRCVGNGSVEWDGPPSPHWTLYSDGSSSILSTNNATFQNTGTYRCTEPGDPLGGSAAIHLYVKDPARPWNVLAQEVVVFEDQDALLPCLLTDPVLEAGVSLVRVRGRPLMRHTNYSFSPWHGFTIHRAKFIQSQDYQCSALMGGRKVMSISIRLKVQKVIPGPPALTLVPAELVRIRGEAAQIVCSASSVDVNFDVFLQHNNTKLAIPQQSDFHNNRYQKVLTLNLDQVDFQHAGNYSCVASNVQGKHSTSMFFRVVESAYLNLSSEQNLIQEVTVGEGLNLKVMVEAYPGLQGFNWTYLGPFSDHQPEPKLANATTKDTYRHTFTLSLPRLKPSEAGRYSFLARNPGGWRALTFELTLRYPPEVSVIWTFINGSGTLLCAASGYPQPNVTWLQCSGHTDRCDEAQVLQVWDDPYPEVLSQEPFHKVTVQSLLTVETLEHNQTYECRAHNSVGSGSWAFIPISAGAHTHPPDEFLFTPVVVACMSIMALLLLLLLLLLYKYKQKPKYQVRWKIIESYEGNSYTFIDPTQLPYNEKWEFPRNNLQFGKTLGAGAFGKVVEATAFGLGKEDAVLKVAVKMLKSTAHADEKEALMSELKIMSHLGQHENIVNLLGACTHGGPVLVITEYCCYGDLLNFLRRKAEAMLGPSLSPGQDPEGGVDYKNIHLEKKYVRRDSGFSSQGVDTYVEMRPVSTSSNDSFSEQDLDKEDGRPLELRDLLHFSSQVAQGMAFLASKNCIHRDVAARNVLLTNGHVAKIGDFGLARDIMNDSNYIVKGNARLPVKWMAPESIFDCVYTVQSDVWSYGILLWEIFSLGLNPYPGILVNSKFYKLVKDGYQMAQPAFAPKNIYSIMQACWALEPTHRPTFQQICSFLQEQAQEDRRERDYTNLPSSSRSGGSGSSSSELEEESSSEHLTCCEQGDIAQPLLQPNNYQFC

| IC50 (Fms kinase) | IC50 (BCR-FMS BaF3 cells) | IC50 (BCR-NTRK3 BaF3 cells) | IC50 (SKNSH cells) | Compound |
| --- | --- | --- | --- | --- |
| < 100 nM | < 1000 nM | < 10 nM | < 1000 nM | COc1ccc(Nc2ccc(C(=O)c3c[nH]c4ncnc(NC(C)(C)C)c34)c(F)n2)cn1 [Compound P-4055, [4-(tert-butylamino)-7H-pyrrolo[2,3-d]pyrimidin-5-yl]-[2-fluoro-6-[(6-methoxy-3-pyridyl)amino]-3-pyridyl]methanone] |
| < 100 nM | < 1000 nM | < 10 nM | < 1000 nM | COc1ccc(Nc2ccc(C(=O)c3c[nH]c4ncnc(NC5CCC(F)(F)CC5)c34)c(F)n2)cn1 [Compound P-4056, [4-[(4,4-difluorocyclohexyl)amino]-7H-pyrrolo[2,3-d]pyrimidin-5-yl]-[2-fluoro-6-[(6-methoxy-3-pyridyl)amino]-3-pyridyl]methanone] |
| < 100 nM | < 1000 nM | < 1000 nM | < 10000 nM | O=C(c1ccc(NC2CCC(F)(F)CC2)nc1Cl)c1c[nH]c2ncnc(NCC(F)(F)F)c12 [Compound P-4057, [2-chloro-6-[(4,4-difluorocyclohexyl)amino]-3-pyridyl]-[4-(2,2,2-trifluoroethylamino)-7H-pyrrolo[2,3-d]pyrimidin-5-yl]methanone] |
| < 100 nM | < 10 nM | – | < 10000 nM | CCc1ccc(Nc2ccc(C(=O)c3c[nH]c4ncnc(NC5CCC(F)(F)CC5)c34)c(F)n2)cn1 [Compound P-4096, [4-[(4,4-difluorocyclohexyl)amino]-7H-pyrrolo[2,3-d]pyrimidin-5-yl]-[6-[(6-ethyl-3-pyridyl)amino]-2-fluoro-3-pyridyl]methanone] |
| < 1000 nM | < 100 nM | – | < 10000 nM | CCc1ccc(Nc2ccc(C(=O)c3c[nH]c4ncnc(N[C@@H](C)c5ccc(F)cc5)c34)c(F)n2)cn1 [Compound P-4097, [6-[(6-ethyl-3-pyridyl)amino]-2-fluoro-3-pyridyl]-[4-[[(1S)-1-(4-fluorophenyl)ethyl]amino]-7H-pyrrolo[2,3-d]pyrimidin-5-yl]methanone] |
| < 10 nM | < 100 nM | – | < 10000 nM | CCc1ccc(Nc2ccc(C(=O)c3c[nH]c4ncnc(NCCCOC)c34)c(F)n2)cn1 [Compound P-4098, [6-[(6-ethyl-3-pyridyl)amino]-2-fluoro-3-pyridyl]-[4-(3-methoxypropylamino)-7H-pyrrolo[2,3-d]pyrimidin-5-yl]methanone] |
| < 100 nM | < 10 nM | – | < 1000 nM | CCc1ccc(Nc2ccc(C(=O)c3c[nH]c4ncnc(NC5CCCC5)c34)c(F)n2)cn1 [Compound P-4099, [4-(cyclopentylamino)-7H-pyrrolo[2,3-d]pyrimidin-5-yl]-[6-[(6-ethyl-3-pyridyl)amino]-2-fluoro-3-pyridyl]methanone] |
| < 100 nM | < 100 nM | – | < 1000 nM | CCCCNc1ncnc2[nH]cc(C(=O)c3ccc(Nc4ccc(CC)nc4)nc3F)c12 [Compound P-4100, [4-(butylamino)-7H-pyrrolo[2,3-d]pyrimidin-5-yl]-[6-[(6-ethyl-3-pyridyl)amino]-2-fluoro-3-pyridyl]methanone] |
| < 100 nM | < 10 nM | – | < 1000 nM | CC(C)Nc1ncnc2[nH]cc(C(=O)c3ccc(NC4CCCCC4)nc3F)c12 [Compound P-4101, [6-(cyclohexylamino)-2-fluoro-3-pyridyl]-[4-(isopropylamino)-7H-pyrrolo[2,3-d]pyrimidin-5-yl]methanone] |
| < 100 nM | < 10 nM | – | < 1000 nM | CNc1ncnc2[nH]cc(C(=O)c3ccc(NC4CCCCC4)nc3F)c12 [Compound P-4102, [6-(cyclohexylamino)-2-fluoro-3-pyridyl]-[4-(methylamino)-7H-pyrrolo[2,3-d]pyrimidin-5-yl]methanone] |
| < 100 nM | < 100 nM | – | < 10000 nM | CC(C)Nc1ncnc2[nH]cc(C(=O)c3ccc(NC4CCCCC4)nc3Cl)c12 [Compound P-4109, [2-chloro-6-(cyclohexylamino)-3-pyridyl]-[4-(isopropylamino)-7H-pyrrolo[2,3-d]pyrimidin-5-yl]methanone] |
| < 100 nM | < 100 nM | – | < 10000 nM | CNc1ncnc2[nH]cc(C(=O)c3ccc(NC4CCCCC4)nc3Cl)c12 [Compound P-4110, [2-chloro-6-(cyclohexylamino)-3-pyridyl]-[4-(methylamino)-7H-pyrrolo[2,3-d]pyrimidin-5-yl]methanone] |
| < 100 nM | < 10 nM | < 10 nM | – | CCc1ccc(Nc2ccc(C(=O)c3c[nH]c4ncnc(NCC5CC5)c34)c(F)n2)cn1 [Compound P-4118, [4-(cyclopropylmethylamino)-7H-pyrrolo[2,3-d]pyrimidin-5-yl]-[6-[(6-ethyl-3-pyridyl)amino]-2-fluoro-3-pyridyl]methanone] |
| < 10 nM | < 10 nM | < 10 nM | – | CCc1ccc(Nc2ccc(C(=O)c3c[nH]c4ncnc(NCCOC)c34)c(F)n2)cn1 [Compound P-4119, [6-[(6-ethyl-3-pyridyl)amino]-2-fluoro-3-pyridyl]-[4-(2-methoxyethylamino)-7H-pyrrolo[2,3-d]pyrimidin-5-yl]methanone] |
| < 100 nM | < 10 nM | < 10 nM | – | CCc1ccc(Nc2ccc(C(=O)c3c[nH]c4ncnc(NCC(C)C)c34)c(F)n2)cn1 [Compound P-4121, [6-[(6-ethyl-3-pyridyl)amino]-2-fluoro-3-pyridyl]-[4-(isobutylamino)-7H-pyrrolo[2,3-d]pyrimidin-5-yl]methanone] |
| < 10 nM | < 10 nM | < 10 nM | – | CCCNc1ncnc2[nH]cc(C(=O)c3ccc(Nc4ccc(CC)nc4)nc3F)c12 [Compound P-4122, [6-[(6-ethyl-3-pyridyl)amino]-2-fluoro-3-pyridyl]-[4-(propylamino)-7H-pyrrolo[2,3-d]pyrimidin-5-yl]methanone] |
| < 100 nM | < 10 nM | < 10 nM | – | CCc1ccc(Nc2ccc(C(=O)c3c[nH]c4ncnc(NC5CC5)c34)c(F)n2)cn1 [Compound P-4125, [4-(cyclopropylamino)-7H-pyrrolo[2,3-d]pyrimidin-5-yl]-[6-[(6-ethyl-3-pyridyl)amino]-2-fluoro-3-pyridyl]methanone] |
